# Reference: patent US9856262B2, “Analogues of 4H-pyrazolo[1,5-a] benzimidazole compound as PARP inhibitors” (HUBEI BIO-PHARMACEUTICAL INDUSTRIAL TECHNOLOGICAL INSTITUTE …, priority 2014, dated 2018)
# Read-outs that look alike come from different tables or passages of the source.
# How the values were obtained:
# PARP-1 = target: T1, PARP-1 (Homo sapiens, UniProt P09874); test: PARP enzymatic assay (HT Universal Colorimetric PARP1 Assay Kit); type: biochemical; conditions: read-out: PARP-1 enzymatic inhibition IC50
# T1 construct: purchased
# T1 sequence (P09874 whole entry): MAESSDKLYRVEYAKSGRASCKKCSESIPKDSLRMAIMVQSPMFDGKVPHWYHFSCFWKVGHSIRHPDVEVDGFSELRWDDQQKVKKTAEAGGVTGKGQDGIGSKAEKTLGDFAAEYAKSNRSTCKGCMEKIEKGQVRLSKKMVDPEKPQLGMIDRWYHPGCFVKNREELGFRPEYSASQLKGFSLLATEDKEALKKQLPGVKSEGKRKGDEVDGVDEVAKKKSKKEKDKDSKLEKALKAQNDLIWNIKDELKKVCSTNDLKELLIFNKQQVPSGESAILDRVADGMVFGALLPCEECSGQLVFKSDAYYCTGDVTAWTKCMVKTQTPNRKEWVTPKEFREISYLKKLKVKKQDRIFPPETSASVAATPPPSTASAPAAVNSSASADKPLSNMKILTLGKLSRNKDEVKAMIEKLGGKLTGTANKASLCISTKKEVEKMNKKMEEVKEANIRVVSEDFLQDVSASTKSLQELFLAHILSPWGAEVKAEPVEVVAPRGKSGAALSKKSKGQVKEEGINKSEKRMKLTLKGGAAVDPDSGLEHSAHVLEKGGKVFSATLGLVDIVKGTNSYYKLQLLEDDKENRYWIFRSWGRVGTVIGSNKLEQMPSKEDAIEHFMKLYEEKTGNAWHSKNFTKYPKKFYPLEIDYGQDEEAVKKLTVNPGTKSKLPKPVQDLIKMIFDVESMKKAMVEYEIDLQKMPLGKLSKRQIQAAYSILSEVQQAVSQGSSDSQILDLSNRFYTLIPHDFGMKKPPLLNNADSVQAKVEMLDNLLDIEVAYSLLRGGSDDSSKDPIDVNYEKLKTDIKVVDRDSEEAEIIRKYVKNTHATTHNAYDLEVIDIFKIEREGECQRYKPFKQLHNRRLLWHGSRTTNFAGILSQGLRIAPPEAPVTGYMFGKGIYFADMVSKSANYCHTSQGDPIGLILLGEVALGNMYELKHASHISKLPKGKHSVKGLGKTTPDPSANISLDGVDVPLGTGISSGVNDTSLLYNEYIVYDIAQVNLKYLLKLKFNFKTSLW
# Method: PARP Enzymatic Assay (Following the Manual of HT Universal Colorimetric PARP1 Assay Kit).
# Histone proteins were coated on a 96-well plate and incubated overnight at 4° C. After be washed 3 times with 200 ul PBST solution, the plate was blocked with a blocking solution and incubated for 30 min at room temperature, and then washed with PBST solution 3 times. A compound to be tested was treated and added to the plate. Thereafter, 20 μl of diluted PARP1 (1 nM) or 20 μl of PARP2 (3 nM) solution was added into the reaction system and incubated for 1 or 2 hours. 50 ul of streptavidin-HRP mixture (1:50) was added into the plate and incubated for 30 min at room temperature. The plate was then washed with three times with PBST buffer. 100 μl of (HRP) (Chemiluminescent substrate A and substrate B (1:1)) was added into the plate, and the plate was immediately read on a microplate reader (Envision, PerkinElmer).
# HCC1937 cells = test: Cellular PARylation assay; type: cell-based; conditions: Homo sapiens
# Method: Cellular PARylation Assay
# HCC1937 cells were planted into 96 well plates at 4×10^4 cells/well and incubated at 37° C. in an incubator overnight. After being treated with a test compound for 30 min, cells were then treated with 1 mM H2O2 for 10 min. The cells were washed with 200 ul pre-chilled PBS twice and fixed with 100 ul pre-chilled methanol/acetone (7:3) on ice for 30 min. After being air-dried, the plates were blocked using PBS-Tween blocking solution (0.05%) with dissolved 5% nonfat dry milk for 30 min at room temperature. The cells were incubated with anti-PAR antibody 10H (1:100) at room temperature for 1 hour followed by washing with PBS-Tween20 for 3 times; and then added into a blocking solution including goat anti-mouse fluorescein isothiocyanate (FITC)-coupled secondary antibody and 1 μg/mL DAPI to incubate away from light at room temperature for 1 hour. After being washed with PBS-Tween20 for 3 times, the plate was analyzed with a fluorescence microplate counter (Flexstation III, Molecular Device).
# [1] = HCC1937 cells, compound 30 min then 1 mM H2O2 10 min, read-out: cellular PARylation EC50
structure (smiles),measurement,setting,value
"CCOC(=O)C1CC1CN1CCC(C)(c2cnn3c2[nH]c2cc(F)cc(C(N)=O)c23)CC1 (stereo not drawn) [Example 80, ethyl 2-((4-(8-carbamoyl-6-fluoro-4H-benzo[4,5]imidazo[1,2-b]pyrazol-3-yl)-4-methylpiperidin-1-yl)methyl)cyclopropanecarboxylate]",IC50,PARP-1,1 to 100 nM
same,EC50,HCC1937 cells; [1],1 to 100 nM
"NC(=O)c1cc(F)cc2[nH]c3c(C4CCNCC4)cnn3c12 [Example 1, 6-fluoro-3-(piperidin-4-yl)-4H-benzo[4,5]imidazo[1,2-b]pyrazole-8-carboxamide]",IC50,PARP-1,1 to 100 nM
same,EC50,HCC1937 cells; [1],101 to 1000 nM
"CC(C)N1CCC(C)(c2cnn3c2[nH]c2cc(F)cc(C(N)=O)c23)C1 (stereo not drawn) [Example 92, 6-fluoro-3-(1-isopropyl-3-methylpyrrolidin-3-yl)-4H-benzo[4,5]imidazo[1,2-b]pyrazole-8-carboxamide]",IC50,PARP-1,1 to 100 nM
same,EC50,HCC1937 cells; [1],1 to 100 nM
"CCN1CCC(C)(c2cnn3c2[nH]c2cc(Cl)cc(C(N)=O)c23)CC1 [Example 89, 6-chloro-3-(1-ethyl-4-methylpiperidin-4-yl)-4H-benzo[4,5]imidazo[1,2-b]pyrazole-8-carboxamide]",IC50,PARP-1,1 to 100 nM
same,EC50,HCC1937 cells; [1],101 to 1000 nM
"COCCN1CCC(C)(c2cnn3c2[nH]c2cc(F)cc(C(N)=O)c23)CC1 [Example 69, 6-fluoro-3-(1-(2-methoxyethyl)-4-methylpiperidin-4-yl)-4H-benzo[4,5]imidazo[1,2-b]pyrazole-8-carboxamide]",IC50,PARP-1,1 to 100 nM
same,EC50,HCC1937 cells; [1],1 to 100 nM
"CC1(c2cnn3c2[nH]c2cc(F)cc(C(N)=O)c23)CCN(CC(F)(F)F)C1 (stereo not drawn) [Example 97, 6-fluoro-3-(3-methyl-1-(2,2,2-trifluoroethyl)pyrrolidin-3-yl)-4H-benzo[4,5]imidazo[1,2-b]pyrazole-8-carboxamide]",IC50,PARP-1,1 to 100 nM
same,EC50,HCC1937 cells; [1],101 to 1000 nM
"CC1(c2cnn3c2[nH]c2cc(F)cc(C(N)=O)c23)CCN(CC2(C#N)CCC2)CC1 [Example 64, 3-(1-((1-cyanocyclobutyl)methyl)-4-methylpiperidin-4-yl)-6-fluoro-4H-benzo[4,5]imidazo[1,2-b]pyrazole-8-carboxamide]",IC50,PARP-1,1 to 100 nM
same,EC50,HCC1937 cells; [1],101 to 1000 nM
"CCN1CCC(c2cnn3c2[nH]c2cccc(C(N)=O)c23)CC1 [Example 27, 3-(1-ethylpiperidin-4-yl)-4H-benzo[4,5]imidazo[1,2-b]pyrazole-8-carboxamide]",IC50,PARP-1,1 to 100 nM
same,EC50,HCC1937 cells; [1],1 to 100 nM
"CC(C)N1CCC(C)(c2cnn3c2[nH]c2cc(F)cc(C(N)=O)c23)CC1 [Example 105, 6-fluoro-3-(1-isopropyl-4-methylpiperidin-4-yl)-4H-benzo[4,5]imidazo[1,2-b]pyrazole-8-carboxamide]",IC50,PARP-1,1 to 100 nM
same,EC50,HCC1937 cells; [1],1 to 100 nM
"COC(=O)C1(c2cnn3c2[nH]c2cc(F)cc(C(N)=O)c23)CCN(CC2CC2)CC1 [Example 110, methyl 4-(8-carbamoyl-6-fluoro-4H-benzo[4,5]imidazo[1,2-b]pyrazol-3-yl)-1-(cyclopropylmethyl)piperidine-4-carboxylate]",IC50,PARP-1,1 to 100 nM
same,EC50,"HCC1937 cells; HCC1937, read-out: cellular PARylation EC50",101 to 1000 nM
"CNCc1ccc(-c2cnn3c2[nH]c2cc(F)cc(C(N)=O)c23)cc1 [Example 43, 6-fluoro-3-(4-((methylamino)methyl)phenyl)-4H-benzo[4,5]imidazo[1,2-b]pyrazole-8-carboxamide]",IC50,PARP-1,1 to 100 nM
same,EC50,HCC1937 cells; [1],101 to 1000 nM
"CC(C)N1CCC(c2cnn3c2[nH]c2cc(F)cc(C(N)=O)c23)C1 (stereo not drawn) [Example 22, 6-fluoro-3-(1-isopropylpyrrolidin-3-yl)-4H-benzo[4,5]imidazo[1,2-b]pyrazole-8-carboxamide]",IC50,PARP-1,1 to 100 nM
same,EC50,HCC1937 cells; [1],1 to 100 nM
"NC(=O)c1cc(F)cc2[nH]c3c(C45CC4CN(CC4CC4)C5)cnn3c12 (stereo not drawn) [Example 31, 3-(3-(cyclopropylmethyl)-3-azabicyclo[3.1.0]hexan-1-yl)-6-fluoro-4H-benzo[4,5]imidazo[1,2-b]pyrazole-8-carboxamide]",IC50,PARP-1,1 to 100 nM
same,EC50,HCC1937 cells; [1],1 to 100 nM
"CCN1CCC(CC)(c2cnn3c2[nH]c2cc(F)cc(C(N)=O)c23)CC1 [Example 107, 3-(1,4-diethylpiperidin-4-yl)-6-fluoro-4H-benzo[4,5]imidazo[1,2-b]pyrazole-8-carboxamide]",IC50,PARP-1,1 to 100 nM
same,EC50,HCC1937 cells; [1],1 to 100 nM
"CC1(c2cnn3c2[nH]c2cc(F)cc(C(N)=O)c23)CCN(CC2(N)CC2)CC1 [Example 67, 3-(1-((1-aminocyclopropyl)methyl)-4-methylpiperidin-4-yl)-6-fluoro-4H-benzo[4,5]imidazo[1,2-b]pyrazole-8-carboxamide]",IC50,PARP-1,1 to 100 nM
same,EC50,HCC1937 cells; [1],1 to 100 nM
"CN(C)C1CCC(c2cnn3c2[nH]c2cc(F)cc(C(N)=O)c23)CC1 (stereo not drawn) [Example 48, 3-(4-(dimethylamino)cyclohexyl)-6-fluoro-4H-benzo[4,5]imidazo[1,2-b]pyrazole-8-carboxamide]",IC50,PARP-1,1 to 100 nM
same,EC50,HCC1937 cells; [1],1 to 100 nM
"CN1CCC(c2cnn3c2[nH]c2cc(F)cc(C(N)=O)c23)CC1 [Example 9, 6-fluoro-3-(1-methylpiperidin-4-yl)-4H-benzo[4,5]imidazo[1,2-b]pyrazole-8-carboxamide]",IC50,PARP-1,1 to 100 nM
same,EC50,HCC1937 cells; [1],1 to 100 nM
"CCN1CC2C(C1)C2c1cnn2c1[nH]c1cc(F)cc(C(N)=O)c12 (stereo not drawn) [Example 34, 3-(3-ethyl-3-azabicyclo[3.1.0]hexan-6-yl)-6-fluoro-4H-benzo[4,5]imidazo[1,2-b]pyrazole-8-carboxamide]",IC50,PARP-1,1 to 100 nM
same,EC50,HCC1937 cells; [1],101 to 1000 nM
"CCN1CCC(C)(c2cnn3c2[nH]c2cc(F)cc(C(N)=O)c23)C1 (stereo not drawn) [Example 90, 3-(1-ethyl-3-methylpyrrolidin-3-yl)-6-fluoro-4H-benzo[4,5]imidazo[1,2-b]pyrazole-8-carboxamide]",IC50,PARP-1,1 to 100 nM
same,EC50,HCC1937 cells; [1],1 to 100 nM
"CN1CCC(c2cnn3c2[nH]c2cc(F)cc(C(N)=O)c23)C1 (stereo not drawn) [Example 20, 6-fluoro-3-(1-methylpyrrolidin-3-yl)-4H-benzo[4,5]imidazo[1,2-b]pyrazole-8-carboxamide]",IC50,PARP-1,1 to 100 nM
same,EC50,HCC1937 cells; [1],1 to 100 nM
"CC1(c2cnn3c2[nH]c2cc(F)cc(C(N)=O)c23)CCN(CC2(N)CC2)C1 (stereo not drawn) [Example 100, 3-(1-((1-aminocyclopropyl)methyl)-3-methylpyrrolidin-3-yl)-6-fluoro-4H-benzo[4,5]imidazo[1,2-b]pyrazole-8-carboxamide]",IC50,PARP-1,1 to 100 nM
same,EC50,HCC1937 cells; [1],1 to 100 nM
"CC(C)CN1CCC(C)(c2cnn3c2[nH]c2cc(F)cc(C(N)=O)c23)CC1 [Example 82, 6-fluoro-3-(1-isobutyl-4-methylpiperidin-4-yl)-4H-benzo[4,5]imidazo[1,2-b]pyrazole-8-carboxamide]",IC50,PARP-1,1 to 100 nM
same,EC50,HCC1937 cells; [1],1 to 100 nM
"Cn1ccnc1CN1CCC(C)(c2cnn3c2[nH]c2cc(F)cc(C(N)=O)c23)CC1 [Example 84, 6-fluoro-3-(4-methyl-1-((1-methyl-1H-imidazol-2-yl)methyl)piperidin-4-yl)-4H-benzo[4,5]imidazo[1,2-b]pyrazole-8-carboxamide]",IC50,PARP-1,1 to 100 nM
same,EC50,HCC1937 cells; [1],1 to 100 nM
"Cc1ncc(CN2CCC(C)(c3cnn4c3[nH]c3cc(F)cc(C(N)=O)c34)CC2)n1C [Example 85, 3-(1-((1,2-dimethyl-1H-imidazol-5-yl)methyl)-4-methylpiperidin-4-yl)-6-fluoro-4H-benzo[4,5]imidazo[1,2-b]pyrazole-8-carboxamide]",IC50,PARP-1,1 to 100 nM
same,EC50,HCC1937 cells; [1],1 to 100 nM
"CC1(c2cnn3c2[nH]c2cc(F)cc(C(N)=O)c23)CCN(S(C)(=O)=O)CC1 [Example 75, 6-fluoro-3-(4-methyl-1-(methylsulfonyl)piperidin-4-yl)-4H-benzo[4,5]imidazo[1,2-b]pyrazole-8-carboxamide]",IC50,PARP-1,1 to 100 nM
same,EC50,HCC1937 cells; [1],101 to 1000 nM
"N#Cc1cnn2c1[nH]c1cc(F)cc(C(N)=O)c12 [Example 37, 3-cyano-6-fluoro-4H-benzo[4,5]imidazo[1,2-b]pyrazole-8-carboxamide]",IC50,PARP-1,1 to 100 nM
same,EC50,HCC1937 cells; [1],> 1000 nM
"CN1CCCC(c2cnn3c2[nH]c2cc(F)cc(C(N)=O)c23)CC1 (stereo not drawn) [Example 19, 6-fluoro-3-(1-methylazepan-4-yl)-4H-benzo[4,5]imidazo[1,2-b]pyrazole-8-carboxamide]",IC50,PARP-1,1 to 100 nM
same,EC50,HCC1937 cells; [1],1 to 100 nM
"NC(=O)c1cc(F)cc2[nH]c3c(-c4ccncc4)cnn3c12 [Example 45, 6-fluoro-3-(pyridin-4-yl)-4H-benzo[4,5]imidazo[1,2-b]pyrazole-8-carboxamide]",IC50,PARP-1,101 to 1000 nM
same,EC50,HCC1937 cells; [1],> 1000 nM
"CC1(c2cnn3c2[nH]c2cc(F)cc(C(N)=O)c23)CCN(Cc2cccs2)CC1 [Example 77, 6-fluoro-3-(4-methyl-1-(thiophen-2-ylmethyl)piperidin-4-yl)-4H-benzo[4,5]imidazo[1,2-b]pyrazole-8-carboxamide]",IC50,PARP-1,1 to 100 nM
same,EC50,HCC1937 cells; [1],1 to 100 nM
"CC1(c2cnn3c2[nH]c2cc(F)cc(C(N)=O)c23)CCN(CC2COC2)CC1 [Example 68, 6-fluoro-3-(4-methyl-1-(oxetan-3-ylmethyl)piperidin-4-yl)-4H-benzo[4,5]imidazo[1,2-b]pyrazole-8-carboxamide]",IC50,PARP-1,1 to 100 nM
same,EC50,HCC1937 cells; [1],1 to 100 nM
